In PubChem BioAssay (NCI):
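Where inhibition never reached the appropriate level, the endpoint shown equals the highest concentration tested. Otherwise, values were interpolated linearly from a five-concentration, 48-hour dose response in 96-well plates. The concentration for full growth arrest is given as TGI.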

Key:
Test in all cases: NCI tumour cell line growth inhibition, 48 h
HL-60(TB) leukemia = tested on: HL-60(TB) leukemia
MDA-MB-435 = tested on: MDA-MB-435
SK-MEL-28 melanoma = tested on: SK-MEL-28 melanoma
ACHN renal = tested on: ACHN renal
SK-MEL-2 melanoma = tested on: SK-MEL-2 melanoma
NCI-H23 lung = tested on: NCI-H23 lung
PC-3 prostate = tested on: PC-3 prostate
BT-549 breast = tested on: BT-549 breast
NCI/ADR-RES ovarian = tested on: NCI/ADR-RES ovarian
A549 NSCLC = tested on: A549 NSCLC
IGROV1 ovarian = tested on: IGROV1 ovarian
EKVX NSCLC = tested on: EKVX NSCLC
MDA-N = tested on: MDA-N
KM12 colon = tested on: KM12 colon
SF-268 CNS = tested on: SF-268 CNS
UACC-257 melanoma = tested on: UACC-257 melanoma
SNB-75 CNS = tested on: SNB-75 CNS

Row | SMILES | TGI (HL-60(TB) leukemia) | TGI (MDA-MB-435) | TGI (SK-MEL-28 melanoma) | TGI (ACHN renal) | TGI (SK-MEL-2 melanoma) | TGI (NCI-H23 lung) | TGI (PC-3 prostate) | TGI (BT-549 breast) | TGI (NCI/ADR-RES ovarian) | TGI (A549 NSCLC) | TGI (IGROV1 ovarian) | TGI (EKVX NSCLC) | TGI (MDA-N) | TGI (KM12 colon) | TGI (SF-268 CNS) | TGI (UACC-257 melanoma) | TGI (SNB-75 CNS)
1 | CCC1c2[nH]c3ccccc3c2C[C@H]2C(=O)NC(Cc3ccccc3)C(=O)N12 (some centres undefined) | 47.8 µM | 43.8 µM | > 100 µM | > 100 µM | 41.4 µM | > 100 µM | 58.2 µM | 62.4 µM | 95.3 µM | > 100 µM | 74.7 µM | 95 µM | 67.5 µM | 66 µM | 66.3 µM | 49.6 µM | 
2 | OCC1OC(NC(=S)NCSCCC(F)(F)C(F)(F)C(F)(F)C(F)(F)C(F)(F)C(F)(F)F)C(O)C(O)C1O (centres undefined) | > 100 µM | > 100 µM | > 100 µM | > 100 µM | > 100 µM | > 100 µM | > 100 µM | > 100 µM | > 100 µM | > 100 µM | > 100 µM |  | > 100 µM | > 100 µM | > 100 µM | > 100 µM | > 100 µM
3 | O=[N+]([O-])c1ccc2nc(/C=C(\O)c3ccccc3)c(/C=C(\O)c3ccc(Cl)cc3)nc2c1 |  | > 100 µM |  | > 100 µM | > 100 µM | > 100 µM | > 100 µM | > 100 µM | > 100 µM | > 100 µM | > 100 µM | > 100 µM | > 100 µM | > 100 µM | > 100 µM | > 100 µM | 64.9 µM
4 | [N-]=[N+]=NC1=C(N=[N+]=[N-])c2cccc3cccc(c23)C1=O |  | > 100 µM |  | > 100 µM | > 100 µM | > 100 µM | > 100 µM | > 100 µM | > 100 µM | > 100 µM | > 100 µM | > 100 µM | > 100 µM | > 100 µM | > 100 µM | > 100 µM | > 100 µM
5 | CC(=O)/C(=C\n1c(=S)[nH]c2ccc([N+](=O)[O-])cc21)C(=O)Nc1ccccc1C | > 100 µM | > 100 µM | > 100 µM | > 100 µM | > 100 µM | > 100 µM | > 100 µM | > 100 µM | > 100 µM | > 100 µM | > 100 µM | > 100 µM | > 100 µM |  |  | > 100 µM | 
6 | CC(C)(C)OC(=O)N1CCC[C@H]1CSC[C@@H]1CCCN1C(=O)OC(C)(C)C |  | 46.7 µM | 60 µM | 82.2 µM | 40.6 µM | 68.2 µM | 82.1 µM | 58.9 µM | 48.9 µM | 87.3 µM | > 100 µM | > 100 µM | > 100 µM | 48.2 µM | > 100 µM | 90.8 µM | 77.2 µM
7 | CCC/C(Cl)=N/OC(=O)Nc1cccc(F)c1 |  | 24.8 µM | 9.82 µM | 2.88 µM | 33.4 µM | 38.2 µM | 30.7 µM | 10.4 µM | > 21.1 µM | 41.6 µM | 27.5 µM | 12.2 µM | 23.1 µM | 31.2 µM | > 54.4 µM | 28 µM | 28.3 µM
8 | CCCNc1c(Cl)cc(Cl)c2[nH]c3ccccc3c(=O)c12 | 47.6 µM | > 100 µM | > 100 µM | > 100 µM | > 100 µM | > 100 µM | > 100 µM | > 100 µM | > 100 µM | > 100 µM | > 100 µM | > 100 µM | > 100 µM | > 100 µM |  | > 100 µM | > 100 µM
9 | O=C(N/N=C1\CCc2ccccc21)N/N=C1\CCc2ccccc21 | > 100 µM | > 100 µM | > 100 µM | > 100 µM | > 100 µM | > 100 µM | > 100 µM | > 100 µM | > 100 µM | > 100 µM | > 100 µM |  | 30 µM | > 100 µM | > 100 µM | > 100 µM | > 100 µM
10 | c1ccc2c(-c3ccnc(-c4c[nH]c5ccccc45)n3)c[nH]c2c1 | 30.8 µM | > 100 µM | > 100 µM | > 100 µM | > 100 µM |  | 10.7 µM | > 100 µM | > 100 µM | > 100 µM | 14.7 µM | > 100 µM | 7.33 µM | 23.9 µM | > 100 µM | > 100 µM | 
11 | COc1cc(O)c2c(=O)cc(C3(OC(C)=O)C=CC(OC4OC(CO)C(O)C(O)C4O)C=C3)oc2c1 (centres undefined) | > 100 µM | > 100 µM | > 100 µM | > 100 µM | > 100 µM | > 100 µM | > 100 µM | > 100 µM | > 100 µM | > 100 µM | > 100 µM | > 100 µM | > 100 µM | > 100 µM |  | > 100 µM | > 100 µM
12 | O=C1NC(c2ccccc2)C1N(Cc1ccccc1)Cc1ccccc1 (centres undefined) | > 100 µM | > 100 µM | > 100 µM | > 100 µM | > 100 µM | > 100 µM | > 100 µM | > 100 µM | > 100 µM |  | > 100 µM | > 100 µM | > 100 µM | > 100 µM | > 100 µM | > 100 µM | > 100 µM
13 | CSc1ccc(C=C2N=C(c3ccccc3)N(c3cc(C(=O)c4ccccc4)ccc3N3C(=O)/C(=C/c4ccc(SC)cc4)N=C3c3ccccc3)C2=O)cc1 | > 100 µM | > 100 µM | > 100 µM | > 100 µM | > 100 µM |  | > 100 µM | > 100 µM | > 100 µM | > 100 µM | > 100 µM | > 100 µM | > 100 µM | > 100 µM | > 100 µM | > 100 µM | 61.5 µM
14 | CCCN=C1S/C(=C/c2ccc(OC)c(OC)c2)C(=O)N1c1ccccc1 | > 100 µM | > 100 µM | > 100 µM | > 100 µM | 85.8 µM | > 100 µM | > 100 µM | > 100 µM | > 100 µM | > 100 µM | > 100 µM | > 100 µM | > 100 µM | > 100 µM | > 100 µM | > 100 µM | 
